Measured values taken from patent US10308686B2, “Gamma-AApeptides with potent and broad-spectrum antimicrobial activity” (priority 2012, dated 2019).
In brackets after ≈: the same amount, converted by molar mass. Like-named read-outs stand apart in the source and are kept apart here.

Experiments:
[1] = system: human red blood cells (hRBC's); test: Hemolysis assay; assay type: cell-based; settings: for Hemolysis HC10 / Hemolysis HC50: red cells of human
Procedure: Freshly drawn human red blood cells (hRBC's) with additive K2 EDTA (spray-dried) were washed with PBS buffer several times and centrifuged at 1000 g for 10 min until a clear supernatant was observed. The hRBC's were resuspended in 1×PBS to get a 5% v/v suspension. Two-fold serial dilutions of γ-AApeptides dissolved in 1×PBS from 250 μg/ml through 1.6 μg/ml were added to a sterile 96-well plate to make up a total volume of 50 μL in each well. Then 50 μL of 5% v/v hRBC solution was added to make up a total volume of 100 μL in each well. The 0% hemolysis point and 100% hemolysis point were determined in 1×PBS and 0.2% Triton-X-100, respectively (Patch et al., 2003). The plate was then incubated at 37° C. for 1 h and centrifuged at 3500 rpm for 10 min. The supernatant (30 μL) was diluted with 100 μL of 1×PBS and absorption was detected by measuring the optical density at 360 nm by Biotek Synergy HT microtiter plate reader. % hemolysis was determined by the following equation: % hemolysis=(Abssample−AbsPBS)/(AbsTriton−AbsPBS)×100 H50 is the concentration of γ-AApeptide amphiphiles at which 50% hemolysis was observed. The highest concentration tested in the hemolytic assay was 500 μg/ml. 7. Fluorescence Microscopy
The sequences shown in FIG. 12 were also evaluated via hemolytic assays. Freshly drawn human red blood cells (hRBC's) with additive K2 EDTA (spray-dried) were washed with PBS buffer several times and centrifuged at 1000 g for 10 min until a clear supernatant was observed. The hRBC's were resuspended in 1×PBS to get a 5% v/v suspension. Two-fold serial dilutions of lipidated γ-AApeptides dissolved in 1×PBS from 1 mg/ml through 6.3 μg/ml were added to sterile 96-well plates to make up a total volume of 50 μL in each well. Then 50 μL of 5% v/v hRBC solution was added to make up a total volume of 100 μL in each well. The 0% hemolysis point and 100% hemolysis point were determined in 1×PBS and 0.2% Triton-X-100, respectively (Patch et al., 2003). The plate was then incubated at 37° C. for 1 h and centrifuged at 3500 rpm for 10 min. The supernatant (30 μL) was diluted with 100 μL of 1×PBS and absorption was detected by measuring the optical density at 360 nm with a Biotek Synergy HT microtiter plate reader. % hemolysis was determined by the following equation: % hemolysis=(Abs sample−Abs PBS)/(Abs Triton−Abs PBS)×100

[2] = system: K. pneumoniae (ATCC 13383)
[3] = system: multi-drug resistant P. aeruginosa ATCC 27853
[4] = system: multi-drug resistant S. epidermidis (RP62A); settings: for MIC, Gram positive S. epidermidis: Table 7; for MIC, S. epidermidis (multi-drug resistant): Table 3
[5] = system: vancomycin-resistant E. faecalis (ATCC 700802); settings: for MIC, Gram positive E. faecalis: Table 7; for MIC, E. faecalis (vancomycin-resistant): Table 3
[6] = system: methicillin-resistant S. aureus (ATCC 33592); settings: for MIC, Gram positive S. aureus: Table 7; for MIC, S. aureus (methicillin-resistant): Table 3
C. albicans (ATCC 10231) = settings: ATCC 10231

## CCCCCCCCCCCCCCCC(=O)N[C@@H](CCCCN)CN(CC(=O)N[C@@H](CCCCN)CN(CC(=O)N[C@@H](CCCCN)CN(CC(N)=O)C(=O)CCCN)C(=O)CCCN)C(=O)CCCN [Sequence 4]
[1]
  Hemolysis HC10: 300 µg/mL
  Hemolysis HC50: > 500 µg/mL
E. coli (JM109)
  MIC, Gram negative E. coli: 20 µg/mL (≈ 19.5 µM)
[2]
  MIC, Gram negative K. pneumoniae: >50 µg/mL
[3]; ATCC 27853
  MIC, Gram negative P. aeruginosa: 15 µg/mL (≈ 14.6 µM)
B. subtilis (BR151)
  MIC, Gram positive B. subtilis: 1.5 µg/mL (≈ 1.46 µM)
[4]
  MIC, Gram positive S. epidermidis: 2 µg/mL (≈ 1.95 µM)
[5]
  MIC, Gram positive E. faecalis: 10 µg/mL (≈ 9.76 µM)
[6]
  MIC, Gram positive S. aureus: 5 µg/mL (≈ 4.88 µM)
C. albicans (ATCC 10231)
  MIC, Fungi, C. albicans: 2 µg/mL (≈ 1.95 µM)

## CCCCCCCC/C=C\CCCCCCCC(=O)N[C@@H](C)CN(CC(=O)N[C@@H](C)CN(CC(=O)N[C@@H](CC(C)C)CN(CC(=O)N[C@@H](CC(C)C)CN(CC(=O)N[C@@H](CC(C)C)CN(CC(N)=O)C(=O)CCCN)C(=O)CCCN)C(=O)CCCN)C(C)=O)C(C)=O [Sequence 13]
[1]
  Hemolysis HC10: 100 µg/mL
  Hemolysis HC50: > 500 µg/mL
E. coli (JM109)
  MIC, Gram negative E. coli: 3 µg/mL (≈ 2.28 µM)
[2]
  MIC, Gram negative K. pneumoniae: 3 µg/mL (≈ 2.28 µM)
[3]; ATCC 27853
  MIC, Gram negative P. aeruginosa: 3 µg/mL (≈ 2.28 µM)
B. subtilis (BR151)
  MIC, Gram positive B. subtilis: 3 µg/mL (≈ 2.28 µM)
[4]
  MIC, Gram positive S. epidermidis: 3 µg/mL (≈ 2.28 µM)
[5]
  MIC, Gram positive E. faecalis: 4 µg/mL (≈ 3.04 µM)
[6]
  MIC, Gram positive S. aureus: 3 µg/mL (≈ 2.28 µM)
C. albicans (ATCC 10231)
  MIC, Fungi, C. albicans: 3 µg/mL (≈ 2.28 µM)

## CCCCCCCC/C=C\CCCCCCCC(=O)N[C@@H](CCCCN)CN(CC(=O)N[C@@H](CCCCN)CN(CC(N)=O)C(=O)CCCN)C(=O)CCCN [Sequence 12]
[1]
  Hemolysis HC10: 250 µg/mL
  Hemolysis HC50: > 500 µg/mL
E. coli (JM109)
  MIC, Gram negative E. coli: 10 µg/mL (≈ 12.6 µM)
[2]
  MIC, Gram negative K. pneumoniae: 15 µg/mL (≈ 18.9 µM)
[3]; ATCC 27853
  MIC, Gram negative P. aeruginosa: 3 µg/mL (≈ 3.78 µM)
B. subtilis (BR151)
  MIC, Gram positive B. subtilis: 2.5 µg/mL (≈ 3.15 µM)
[4]
  MIC, Gram positive S. epidermidis: 4 µg/mL (≈ 5.04 µM)
[5]
  MIC, Gram positive E. faecalis: 5 µg/mL (≈ 6.3 µM)
[6]
  MIC, Gram positive S. aureus: 5 µg/mL (≈ 6.3 µM)
C. albicans (ATCC 10231)
  MIC, Fungi, C. albicans: 2 µg/mL (≈ 2.52 µM)

## CCCCCCCC/C=C\CCCCCCCC(=O)N[C@@H](CCCCN)CN(CC(N)=O)C(=O)CCCN [γAA7]
[1]
  Hemolysis (H50): >500 µg/mL
E. coli (JM109)
  MIC, E. coli: 2.5 µg/mL (≈ 4.65 µM)
[2]
  MIC, K. pneumoniae (causing pneumonia): 50 µg/mL (≈ 93 µM)
[3]; ATCC 27853
  MIC, P. aeruginosa: 2.5 µg/mL (≈ 4.65 µM)
B. subtilis (BR151)
  MIC, B. subtilis: 2 µg/mL (≈ 3.72 µM)
[4]
  MIC, S. epidermidis (multi-drug resistant): 1 µg/mL (≈ 1.86 µM)
[5]
  MIC, E. faecalis (vancomycin-resistant): 2.5 µg/mL (≈ 4.65 µM)
[6]
  MIC, S. aureus (methicillin-resistant): 5 µg/mL (≈ 9.3 µM)
C. albicans (ATCC 10231)
  MIC, Fungi C. albicans: 1.5 µg/mL (≈ 2.79 µM)

## CC(C)CCC(=O)N1CC(=O)N[C@@H](Cc2ccccc2)CN(C(=O)CCC(C)C)CC(=O)N[C@@H](Cc2ccccc2)CN(C(=O)CCC(C)C)CC(=O)N[C@@H](CCCCN)CN(C(=O)CCc2ccccc2)CC(=O)N[C@@H](CCCCN)CN(C(=O)CCc2ccccc2)CC(=O)N[C@@H](CCCCN)CN(C(=O)CCc2ccccc2)CC(=O)N[C@@H](Cc2ccccc2)CN(CC(N)=O)C(=O)CCC(=O)N[C@@H](Cc2ccccc2)C1 [γAA6]
[1]
  Hemolysis (H50): 300 µg/mL
E. coli (JM109)
  MIC, E. coli: 25 to 50 µg/mL
[2]
  MIC, K. pneumoniae (causing pneumonia): 10 µg/mL (≈ 4.84 µM)
[3]; Table 3
  MIC, P. aeruginosa: 10 µg/mL (≈ 4.84 µM)
B. subtilis (BR151)
  MIC, B. subtilis: 2 µg/mL (≈ 0.969 µM)
[4]
  MIC, S. epidermidis (multi-drug resistant): 2 µg/mL (≈ 0.969 µM)
[5]
  MIC, E. faecalis (vancomycin-resistant): 5 µg/mL (≈ 2.42 µM)
[6]
  MIC, S. aureus (methicillin-resistant): 3 µg/mL (≈ 1.45 µM)
C. albicans (ATCC 10231)
  MIC, Fungi C. albicans: 4 µg/mL (≈ 1.94 µM)

## CC(=O)N(CC(=O)N[C@@H](C)CN(CC(=O)N[C@@H](CC(C)C)CN(CC(=O)N[C@@H](CC(C)C)CN(CC(=O)N[C@@H](CC(C)C)CN(CC(N)=O)C(=O)CCCN)C(=O)CCCN)C(=O)CCCN)C(C)=O)C[C@H](C)N [Sequence 9]
[1]
  Hemolysis HC10: 120 µg/mL
  Hemolysis HC50: > 500 µg/mL
E. coli (JM109)
  MIC, Gram negative E. coli: >100 µg/mL
[2]
  MIC, Gram negative K. pneumoniae: >100 µg/mL
[3]; ATCC 27853
  MIC, Gram negative P. aeruginosa: >100 µg/mL
B. subtilis (BR151)
  MIC, Gram positive B. subtilis: >100 µg/mL
[4]
  MIC, Gram positive S. epidermidis: >100 µg/mL
[5]
  MIC, Gram positive E. faecalis: >100 µg/mL
[6]
  MIC, Gram positive S. aureus: >100 µg/mL
C. albicans (ATCC 10231)
  MIC, Fungi, C. albicans: >100 µg/mL

## CCCCCCCCCCCCCCCC(=O)N[C@@H](C)CN(CC(=O)N[C@@H](C)CN(CC(=O)N[C@@H](CCC(=O)O)CN(CC(=O)N[C@@H](CCC(=O)O)CN(CC(=O)N[C@@H](CCC(=O)O)CN(CC(N)=O)C(=O)CC(=O)O)C(=O)CC(=O)O)C(=O)CC(=O)O)C(C)=O)C(C)=O [Sequence 7]
[1]
  Hemolysis HC10: 250 µg/mL
  Hemolysis HC50: > 500 µg/mL
E. coli (JM109)
  MIC, Gram negative E. coli: >100 µg/mL
[2]
  MIC, Gram negative K. pneumoniae: >100 µg/mL
[3]; ATCC 27853
  MIC, Gram negative P. aeruginosa: >100 µg/mL
B. subtilis (BR151)
  MIC, Gram positive B. subtilis: >100 µg/mL
[4]
  MIC, Gram positive S. epidermidis: >100 µg/mL
[5]
  MIC, Gram positive E. faecalis: >100 µg/mL
[6]
  MIC, Gram positive S. aureus: >100 µg/mL
C. albicans (ATCC 10231)
  MIC, Fungi, C. albicans: >100 µg/mL

## CCCCCCCC/C=C\CCCCCCCC(=O)N[C@@H](CCCCN)C(=O)N[C@@H](CCCCN)CN(CC(N)=O)C(=O)CCCN [Sequence 11]
[1]
  Hemolysis HC10: 80 µg/mL
  Hemolysis HC50: > 500 µg/mL
E. coli (JM109)
  MIC, Gram negative E. coli: 10 µg/mL (≈ 15 µM)
[2]
  MIC, Gram negative K. pneumoniae: 40 µg/mL (≈ 60.1 µM)
[3]; ATCC 27853
  MIC, Gram negative P. aeruginosa: 15 µg/mL (≈ 22.5 µM)
B. subtilis (BR151)
  MIC, Gram positive B. subtilis: 2 µg/mL (≈ 3 µM)
[4]
  MIC, Gram positive S. epidermidis: 2 µg/mL (≈ 3 µM)
[5]
  MIC, Gram positive E. faecalis: 2.5 µg/mL (≈ 3.75 µM)
[6]
  MIC, Gram positive S. aureus: 5 µg/mL (≈ 7.51 µM)
C. albicans (ATCC 10231)
  MIC, Fungi, C. albicans: 5 µg/mL (≈ 7.51 µM)

## CCCCCCCCCCCCCCCC(=O)N[C@@H](CCCCN)CN(CC(N)=O)C(=O)CCCN [Sequence 2]
[1]
  Hemolysis HC10: 25 µg/mL
  Hemolysis HC50: 40 µg/mL
E. coli (JM109)
  MIC, Gram negative E. coli: 2.5 µg/mL (≈ 4.88 µM)
[2]
  MIC, Gram negative K. pneumoniae: 35 µg/mL (≈ 68.4 µM)
[3]; ATCC 27853
  MIC, Gram negative P. aeruginosa: 10 µg/mL (≈ 19.5 µM)
B. subtilis (BR151)
  MIC, Gram positive B. subtilis: 1.5 µg/mL (≈ 2.93 µM)
[4]
  MIC, Gram positive S. epidermidis: 2 µg/mL (≈ 3.91 µM)
[5]
  MIC, Gram positive E. faecalis: 2.5 µg/mL (≈ 4.88 µM)
[6]
  MIC, Gram positive S. aureus: 2.5 µg/mL (≈ 4.88 µM)
C. albicans (ATCC 10231)
  MIC, Fungi, C. albicans: 2 µg/mL (≈ 3.91 µM)

## CCCCCCCCCCCCCCCC(=O)N[C@@H](C)CN(CC(=O)N[C@@H](C)CN(CC(=O)N[C@@H](CC(C)C)CN(CC(=O)N[C@@H](CC(C)C)CN(CC(=O)N[C@@H](CC(C)C)CN(CC(N)=O)C(=O)CCCN)C(=O)CCCN)C(=O)CCCN)C(C)=O)C(C)=O [Sequence 6]
[1]
  Hemolysis HC10: 60 µg/mL
  Hemolysis HC50: > 500 µg/mL
E. coli (JM109)
  MIC, Gram negative E. coli: 2.5 µg/mL (≈ 1.94 µM)
[2]
  MIC, Gram negative K. pneumoniae: 5 µg/mL (≈ 3.87 µM)
[3]; ATCC 27853
  MIC, Gram negative P. aeruginosa: 5 µg/mL (≈ 3.87 µM)
B. subtilis (BR151)
  MIC, Gram positive B. subtilis: 2.5 µg/mL (≈ 1.94 µM)
[4]
  MIC, Gram positive S. epidermidis: 4 µg/mL (≈ 3.1 µM)
[5]
  MIC, Gram positive E. faecalis: 5 µg/mL (≈ 3.87 µM)
[6]
  MIC, Gram positive S. aureus: 4 µg/mL (≈ 3.1 µM)
